According to patent publication US9556256B2, “Inhibition of cancer metastasis” (The Board of Trustees of The University of Arkansas, priority 2006, dated 2017):
“Also recorded” adds a separate entry of the source.

What was measured:
uPA = assay: Real-time PCR gene expression in MCF-7 cells after 5azadC: uPA; type: cell-based, human; details: positive control gene
Protocol: (§1) Real-time PCR was conducted to quantify mRNAs of five genes in four different human breast cancer tumor lines. The assayed genes were Syndecan-1 (SDC-1), Neuropilin-1 (NRP-1), Syndecan-4 (SDC-4), MCSP, and estrogen receptor 1. The tumor lines were MCF7, MDA-MD-468 (MDA-468), MDA-MB-231 (MDA-231), and MDA-MET. MCF-7 and MDA-468 are less aggressive. MDA-231 is an aggressive cell line, and MDA-MET is a subline of MDA-231 that metastasizes to bone. The quantity of each mRNA was assayed in comparison to 18s RNA. NRP-1, SDC-4 and MCSP expression was higher in the two more aggressive cell lines than in either of the two less aggressive cell lines. […] MCF-7 and MDA-468 are epithelial-like, while both MDA-231 and MDA-MET cells are mesenchymal type. Thus, high expression of NRP-1, MCSP and SDC-4 may be related to an epithelial to mesenchymal transition, which is a phenotypic event associated with more metastasis and aggressive growth.
(§2) In this experiment, gene expression levels were assayed by real-time PCR and comparison to 18S RNA levels. The dependence of gene expression on methylation levels was tested by treating tumor cells with varying levels of 5-aza-2′-deoxycytidine (5azadC), which is a demethylating agent (Table 6). Methylation of CpG islands is a well-known mechanism of gene control. Methylation decreases expression of genes whose promoters are methylated. The expression of NRP-1, CHST11, and MCPG each increased with increasing 5azadC concentration, which indicates they are under methylation control, with increased methylation repressing expression of the genes. Urokinase (uPA) was used as a positive control.

CHST11 = assay: Real-time PCR gene expression in MCF-7 cells after 5azadC: CHST11; type: cell-based, human; details: for Relative expression level of CHST11 compared with no 5azadC: MCF-7 cells
Protocol: as §1, §2

Synd-4 = assay: Real-time PCR gene expression in MCF-7 cells after 5azadC: Synd-4; type: cell-based, human; details: for Relative expression level of Synd-4 compared with no 5azadC: MCF-7 cells
Protocol: as §1, §2

MCPG = assay: Real-time PCR gene expression in MCF-7 cells after 5azadC: MCPG; type: cell-based, human; details: for Relative expression level of MCPG compared with no 5azadC: MCF-7 cells
Protocol: as §1, §2

NRP-1 = assay: Real-time PCR gene expression in MCF-7 cells after 5azadC: NRP-1; type: cell-based, human; details: for Relative expression level of NRP-1 compared with no 5azadC: MCF-7 cells
Protocol: as §1, §2

P-Selectin = P-Selectin (Mus musculus, UniProt Q01102); assay: P-Selectin binding to 4T1 cells by flow cytometry; details: for P-Selectin binding to 4T1 cells after treatment of the cells: cells pre-treated with the agent; for Inhibition of P-Selectin binding to 4T1 cells: P-Selectin pre-treated with chondroitin sulfate, various concentrations
Chain of P-Selectin (Q01102 with tags, fused parts or gaps limits assumed): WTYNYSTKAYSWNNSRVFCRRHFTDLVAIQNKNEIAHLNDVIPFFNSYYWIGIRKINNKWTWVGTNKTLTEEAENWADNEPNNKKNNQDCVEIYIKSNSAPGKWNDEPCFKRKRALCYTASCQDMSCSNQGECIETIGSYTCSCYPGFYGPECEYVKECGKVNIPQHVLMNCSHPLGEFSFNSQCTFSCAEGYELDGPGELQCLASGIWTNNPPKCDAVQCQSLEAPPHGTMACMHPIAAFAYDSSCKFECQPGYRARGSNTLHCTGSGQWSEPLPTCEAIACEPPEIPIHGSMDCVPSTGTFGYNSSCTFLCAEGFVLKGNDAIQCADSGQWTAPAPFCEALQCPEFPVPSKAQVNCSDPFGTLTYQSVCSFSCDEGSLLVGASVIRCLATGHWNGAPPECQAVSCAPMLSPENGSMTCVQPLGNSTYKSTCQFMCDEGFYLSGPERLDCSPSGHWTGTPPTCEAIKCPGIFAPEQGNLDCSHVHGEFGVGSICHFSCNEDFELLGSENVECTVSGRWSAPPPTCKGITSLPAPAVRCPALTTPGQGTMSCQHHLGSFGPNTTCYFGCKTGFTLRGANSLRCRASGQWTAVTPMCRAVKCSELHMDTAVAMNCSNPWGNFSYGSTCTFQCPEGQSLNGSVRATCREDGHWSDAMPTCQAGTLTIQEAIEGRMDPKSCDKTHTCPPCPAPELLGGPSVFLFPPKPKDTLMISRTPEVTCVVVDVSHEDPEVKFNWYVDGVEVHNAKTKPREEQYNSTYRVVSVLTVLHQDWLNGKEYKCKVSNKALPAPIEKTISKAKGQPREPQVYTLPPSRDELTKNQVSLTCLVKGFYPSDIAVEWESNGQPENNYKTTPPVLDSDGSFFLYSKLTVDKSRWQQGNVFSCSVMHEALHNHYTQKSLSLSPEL
Protocol: Unless specified otherwise, flow cytometry was conducted as follows. Acquisition and analysis of data was performed on an EPICS®™ XL™.flow cytometer (Beckman Coulter, Inc., Fullerton, Calif.). Cells were passed to new flasks 24 hours before measuring lectin binding. The subconfluent monolayer of cells was detached with Cellstripper (Mediatech, Inc. Herndon, Va.) and washed with Dulbecco's phosphate buffered saline with Ca++ and Mg++ (Mediatech, Inc. Herndon, Va.). Cells were transferred to FACS buffer (Dulbecco's Phosphate Buffered Saline, 1% BSA and 0.1% Sodium Azide), counted and diluted to ˜1-2×10^6/ml. Monoclonal antibodies were added to a final concentration of 10 μg/ml. Cells were incubated on ice for 30 minutes, washed twice with FACS buffer, before the addition of FITC-conjugated streptavidin (2 μg/ml) for lectin analysis or FITC-conjugated goat anti-mouse immunoglobulin for monoclonal analysis. Cells were then washed and fixed with paraformaldehyde, before analysis by flow cytometry.
Recombinant E- and P-Selectin/Fc (human IgG) were purchased from R&D systems, Minneapolis, Minn. These recombinant molecules and FITC-conjugated anti-human IgG were used for binding analyses in flow cytometry assays. Human and murine recombinant selectins were used for human and murine cells, respectively.
Binding of recombinant P-Selectin to cells was examined after treatment with heparinase and chondroitinase ABC or in the presence of various concentrations of heparin and chondroitin sulfate A, B, C, and E (Seikagaku America, Falmouth, Mass.).

tumor cells = details: clinically relevant dose; reference 8; cited from earlier work
4T1 cells [1] = assay: Binding of thrombin-treated Calcein-AM-labeled mouse platelets to 4T1 cells; type: cell-based; details: 100 U/ml final concentration
Protocol: To examine if heparin can block the interaction of mouse platelets with tumor cells, 4T1 cells were mixed with Calcein-AM-labeled mouse platelets in the presence of mouse thrombin with or without heparin. Mouse thrombin was added to stimulate relocation of P-Selectin to platelet surface and tumor cells were then analyzed by flow cytometry for Calcein-AM staining, indicating platelet attachment. […] Blood was collected into sodium citrate (0.38% w/v) from naive mice and platelets were isolated from plasma by centrifugation. Platelet were washed and labeled with 5 μM final Calcein-AM (Molecular Probes, Eugene, Oreg., USA) for 15 minutes at 37° C. Platelets were then washed and incubated with 1 U/ml thrombin (Haematologic Technologies Inc, Essex Junction, Vt.) at 37° C. for 10 minutes. Heparin (Baxter Healthcare Corp., Deerfield, Ill., 100 U/ml final concentration) was then added to the mixture of platelets and thrombin, and incubated with 4T1 cells in flow cytometry tubes, for 15 minutes at room temperature, then acquired and analyzed by flow cytometry.

4T1 cells [2] = assay: Spontaneous lung metastasis of 4T1 tumors in BALB/c mice after heparin, clonogenic assay; type: in vivo, mouse; details: 100 units 30 minutes before tumor cell inoculation; 26 days after inoculation
Protocol: BALB/c female mice (6-8 weeks old) were purchased from Harlan (Indianapolis, Ind.). Tumors were established as described earlier (9). Briefly, each mouse was inoculated subcutaneously in the abdominal mammary gland with 5×10^4 4 T1 cells. To establish a functional correlation between P-Selectin ligand expression of 4T1 cells and their metastatic ability in vivo, we injected mice with 100 units of heparin 30 minutes before tumor cell inoculation. Mice were sacrificed 26 days after tumor inoculation, lungs were harvested and metastatic cells were detected by clonogenic assay. […] All mice that were injected with PBS as control developed lung metastasis.

4T1 cells [3] = assay: Lung colonies in mice with 4T1 fat pad tumors injected daily with CS; type: in vivo, mouse; details: 30 days after transplant
Protocol: FIG. 20. Chondroitin sulfate inhibits metastasis. Mice were injected with 4T1 cells into fact pads. After tumors were palpable (3-4 days after transplant) they were daily injected with CS intraperitoneally (ip) or subcutaneously (sc). Micer were sacrificed 30 days after transplant and lung colonies were quantified. Saline injection was used as a control. Comparisons were made between groups treated with CS and the saline group as control. NS, not significant. Average and SD with three animals per group is shown.
Mice were injected with 4T1 cells into fat pads. After tumors were palpable (3-4 days after transplant) the mice were daily injected with CS intraperitoneally (ip) or subcutaneously (sc). The mice were sacrificed 30 days after transplant and lung colonies were quantified. CS was dissolved in saline for injection. Saline control injection by either sc or ip routes produced similar results.

## Nc1ncn([C@H]2C[C@H](O)[C@@H](CO)O2)c(=O)n1 [5azadC, 5-aza-2′-deoxycytidine]
uPA; 0.5 μM
  Relative expression level of uPA compared with no 5azadC: 2.2
uPA; 1 μM
  Relative expression level of uPA compared with no 5azadC: 2.9
uPA; 5 μM
  Relative expression level of uPA compared with no 5azadC: 3.2
uPA; 20 μM
  Relative expression level of uPA compared with no 5azadC: 3.9
CHST11; 0.5 μM
  Relative expression level of CHST11 compared with no 5azadC: 1.34
CHST11; 1 μM
  Relative expression level of CHST11 compared with no 5azadC: 1.68
CHST11; 5 μM
  Relative expression level of CHST11 compared with no 5azadC: 3.7
CHST11; 20 μM
  Relative expression level of CHST11 compared with no 5azadC: 4.00
CHST11; trend over 0.5-20 μM
  Expression of CHST11 with increasing 5azadC concentration: increased
Synd-4; 0.5 μM
  Relative expression level of Synd-4 compared with no 5azadC: 0.7
Synd-4; 1 μM
  Relative expression level of Synd-4 compared with no 5azadC: 0.5
Synd-4; 5 μM
  Relative expression level of Synd-4 compared with no 5azadC: 0.8
Synd-4; 20 μM
  Relative expression level of Synd-4 compared with no 5azadC: 0.6
Synd-4; trend over 0.5-20 μM
  Syndecan-4 expression with 5azadC treatment: decreased or remained approximately constant
MCPG; 0.5 μM
  Relative expression level of MCPG compared with no 5azadC: 1.3
MCPG; 1 μM
  Relative expression level of MCPG compared with no 5azadC: 1.4
MCPG; 5 μM
  Relative expression level of MCPG compared with no 5azadC: 1.7
MCPG; 20 μM
  Relative expression level of MCPG compared with no 5azadC: 2.1
MCPG; trend over 0.5-20 μM
  Expression of MCPG with increasing 5azadC concentration: increased
NRP-1; 0.5 μM
  Relative expression level of NRP-1 compared with no 5azadC: 1.04
NRP-1; 1 μM
  Relative expression level of NRP-1 compared with no 5azadC: 1.50
NRP-1; 5 μM
  Relative expression level of NRP-1 compared with no 5azadC: 1.72
NRP-1; 20 μM
  Relative expression level of NRP-1 compared with no 5azadC: 1.71
NRP-1; trend over 0.5-20 μM
  Expression of NRP-1 with increasing 5azadC concentration: increased

## O=C(O)CN(CCN(CC(=O)O)CC(=O)O)CC(=O)O [EDTA]
P-Selectin; high concentrations (20 and 40 mM)
  P-Selectin reactivity with 4T1 cells in presence of EDTA: inhibited P-Selectin reactivity only at high concentrations
P-Selectin; low concentration (10 mM)
  P-Selectin reactivity with 4T1 cells in presence of EDTA: not blocked

## [Na+].[O-][Cl+2]([O-])[O-] [sodium chlorate]
P-Selectin
  P-Selectin binding to 4T1 cells after treatment of the cells: elimination of P-Selectin binding in a majority of the cells

## Heparin
Tumor cells
  Lung metastasis in experimental models: inhibited lung metastasis
P-Selectin; corresponds to 120 units
  Effective dose for inhibition of P-Selectin binding, as concentration: 0.7 mg/mL
P-Selectin; sLex-Neg 4T1 cell variant, recombinant P-Selectin pre-incubated with 0.7-120 Units heparin
  Inhibition of P-Selectin binding to cells: efficiently inhibited P-Selectin binding to cells in a dose dependent manner
P-Selectin; sLex-Neg 4T1 cells, FIG. 10
  Effective dose for inhibition of P-Selectin binding: 120 units
4T1 cells [1]
  Binding of thrombin treated platelets to tumor cells: reduced
4T1 cells [2]
  Mice with complete absence of metastases in lung: six mice out of total of seven
  Number of mice positive for established lung metastases, Positive (total): *1 (7)

## Neuraminidase: Neuraminidase (Vibrio cholerae) from Sigma, used at 50 mU/ml
P-Selectin
  P-Selectin binding to 4T1 cells after treatment of the cells: did not change

## chondroitin sulfate A [CS A]
P-Selectin
  Inhibition of P-Selectin binding to 4T1 cells: minimal inhibitory effects

## chondroitin sulfate C [CS C]
P-Selectin
  Inhibition of P-Selectin binding to 4T1 cells: minimal inhibitory effects

## chondroitin sulfate E [CS E]
P-Selectin; 4T1 cells
  Concentration giving complete inhibition of P-Selectin binding: 0.5 mg/mL
P-Selectin
  Inhibition of P-Selectin binding to 4T1 cells: inhibited P-Selectin binding; also recorded: effectively inhibit

## chondroitin sulfate [CS]
4T1 cells [3]; 1 mg subcutaneously daily
  Metastasis (lung colonies) compared to saline control: decreased metastasis
4T1 cells [3]; 10 mg subcutaneously daily
  Metastasis (lung colonies) compared to saline control: decreased metastasis
4T1 cells [3]; intraperitoneally daily
  Metastasis (lung colonies) compared to saline control: did not appear to

## dermatan sulfate [CS B]
P-Selectin; 0.005-5.0 mg/ml
  Concentration dependence of inhibition of P-Selectin binding: inhibitory effects only at higher concentrations
P-Selectin
  Inhibition of P-Selectin binding to 4T1 cells: inhibited P-Selectin binding
